Test results: US6942963B1, “Methods for identifying treatments for neurotoxicity in Alzheimer's disease caused by β-amyloid peptides” (Massachusetts Institute of Technology, priority 1997, dated 2005)
Where “and” joins values, the source holds several entries; their conditions need not be identical. Equal entries are not always repeated. Entries after “also recorded” stand apart in the source; their conditions may differ. Where two headings read alike, the source gives them in different places. Non-standard residues stand in square brackets, D forms with d. No end group written: not given here.

Assays:
Type in all cases: cell-based, human
[1] = test system: βAP25-35-induced calcium influx, hNT cells; assay: βAP25-35-induced calcium influx in hNT cells: effect of channel antagonists and decoy peptides; conditions: for effect on βAP25-35-induced calcium influx: βAP25-35 21 μM; for effect on increase in internal calcium concentration due to βAP25-35: decoy peptide mixed with βAP25-35 at ratio 1:1 (20 μM+20 μM), hNT cells
[2] = test system: hNT cells; assay: Internal calcium concentration [Ca2+]int in hNT cells (fura-2) on exposure to β-amyloid peptide or test agent alone; conditions: for [Ca^2+]int after exposure to unfiltered peptide: hNT cells in Tyr2Ca, peptide at 20 μM (βAP1-42 aggregated 37C, 24 hr), controls 80 nM and 50 nM; for % increase in [Ca^2+]int: unfiltered suspension in Tyr2Ca; for effect of decoy peptide by itself on cytosolic calcium concentrations: decoy peptide alone at 20 μM, filtered stocks, Tyrode's/2 mM Ca
[3] = test system: hNT cells; assay: Membrane depolarization of hNT cells by aggregated Aβ1-42 (DiBAC4(3) fluorescence); conditions: for % ΔF / Δ EM: aggregated Aβ1-42 20 μM
Experimental: Changes in membrane potential were measured using the fluorescent potentiometric probe DiBAC4(3), (Molecular Probes, Inc., Eugene, Oreg.). This dye, bis-(1,3-dibutylbarbituric acid)trimethine oxonol, detects membrane depolarization, because it enters depolarized cells and binds to intracellular proteins or membranes. […] Hyperpolarization results in extrusion of the anionic dye and thus a decrease in fluorescence. Our measurements use two dyes, fura-2 and DiBAC4(3), since these dyes have excitation wavelengths that are far apart, but have similar emission wavelengths. DiBAC4(3) was added to fura-2AM loaded hNT cells at a concentration of 100 nM in Tyr2Ca. Rapidly alternating measurements of fura-2 (excited at 340 & 380 nm) and DiBAC4(3) (excited at 490 nm) were performed using emission at 516 nm. Both dyes were measured using the special “Fura2-Fluo3” filter set 7400 from Chroma Technology (Brattleboro, Vt.), a Zeiss Axiovert 100 inverted microscope and a photometry system (model “Delta Ram” from Photon Technology International, Inc., Monmouth Junction, N.J.).
The bis-oxonol dye DiBAC4(3) was used as an indicator of transmembrane electrical potential changes (Langheinrich and Daut, J. Physiol. 502:397-408, 1997) when our hNT cells were treated with, for example, the β-amyloid peptide Aβ1-42. The use of this dye enabled us to monitor groups of 5-15 neurons, rather than single cells as would be the case with patch clamping methods. We expected great variability from cell to cell, as was found in our earlier patch clamp work (Sanderson et al., Brain Res. 744:7-14, 1997). The method has been used by many laboratories for the determination of membrane potentials in different cell types. Fluorescence is increased upon membrane depolarization as more dye enters the cytosol, resulting in increased binding to proteins (Braiuner et al., Biochim. Biophys. Acta 771:[…], 1984). Partitioning of bis-oxonol dye between the plasma membrane and the cytosol follows the Nernst equation (Langheinrich and Daut, 1997). Unless otherwise indicated, all measurements were carried out in Tyrode's solution containing 2 mM Ca.
We calibrated the gross fluorescence as a function of membrane potential by treating a culture of hNT neurons, bathed in Tyrode's 2Ca buffer with the usual 3 mM K^+, containing 97 nM DiBAC4(3), with Tyrode's 2Ca buffer containing 40 mM KCl. We measured the gross fluorescence at excitation=490 nm and emission=510 nm for the depolarization by KCl and for depolarization by the Aβ1-42 peptide. We used the formula proposed by Langheinrich and Daut, 1997: % ΔF=(1−Fmin/Fmax)*100=ΔEMmV
where Fmin=fluorescence before treatment, Fmax=fluorescence during treatment, ΔEM mV is the change in membrane potential brought about by the treatment. The calculation based on the expected depolarization by changing from 3 mM KCl to 40 MM KCl gave a value of ΔEM=3.8 mV/1% ΔF.
Groups of hNT neuronal cells (5-17) were exposed to Aβ1-42 (20 μM) that had been incubated at 37° C. for 48 hours; 97 nM DiBAC4(3) was present. Fluorescence was measured as described above; Ex=490 nm, Em=510 nm.

[4] = test system: βAP1-42-induced calcium influx, hNT cells; assay: βAP1-42 (Aβ1-42) aggregate-induced calcium influx in hNT cells: effect of decoy peptides and channel blockers; conditions: βAP1-42 25 μM coincubated with equimolar decoy peptide at 37° C. for 44 hours, hNT cells
[5] = hNT cells, aggregated Aβ1-42 in Tyrode's medium without calcium

## NC(CCCP(=O)(O)O)C(=O)O (racemic) [DL-AP5, DL-2-amino-5-phosphonovaleric acid]
[1]; concentration not stated
  block of calcium influx into hNT neuronal cells caused by βAP25-35: lack of blocking effect
[1]; DL-AP5 at 50 μM
  effect on βAP25-35-induced calcium influx: failed to prevent
[1]; DL-AP5 at 200 μM
  effect on βAP25-35-induced calcium influx: failed to prevent

## [Cl][Al]([Cl])[Cl] [AlCl3]
[2]; hNT neuronal cells, from external calcium sources
  calcium influx induced by agent by itself: powerfully induces calcium influx

## O=c1[nH]c2cc([N+](=O)[O-])c([N+](=O)[O-])cc2[nH]c1=O [DNQX, 6,7-dinitroquinoxaline-2,3(1H, 4H)-dione]
[1]; DNQX at 8 μM, applied together
  effect on βAP25-35-induced calcium influx: completely prevented

## O=C(O)CN(CCOCCOCCN(CC(=O)O)CC(=O)O)CC(=O)O [EGTA]
[1]; 20 mM EGTA in addition to βAP25-35 peptide
  internal calcium with chelator in external solution in addition to βAP25-35: decreased internal calcium to control levels

## NC(CO)(CO)CO [TRIS^+, Tromethamine]
[3]; hNT cells, 10 mM TRIS^+
  effect on membrane depolarization by aggregated Aβ1-42: moderate decrease in membrane depolarization; also recorded: partially blocks membrane depolarization

## [Cl-].[Cl-].[Mg+2] [magnesium chloride]
[1]
  block of calcium influx into hNT neuronal cells caused by βAP25-35: blocks the influx of Ca^2+; also recorded: can be blocked
  effect on βAP25-35-induced influx of calcium: totally blocked

## GSNKGAIIGLM [βAP25-35]
[2]
  [Ca^2+]int after exposure to unfiltered peptide: approximately 200 nM
[2]; hNT cells previously exposed to 50 μM βAP25-35 in Tyrode's/0 mM Ca
  internal calcium concentration after restoring external calcium to 2 mM without extra peptide: ~200 % of control levels
[2]; hNT cells, 21 μM βAP25-35, single experiment, 4 cells
  [Ca^2+]int relative to control: 270 % of control
[2]; hNT cells, Tyrode's/0 mM Ca plus 50 μM βAP25-35, even after 15 minutes
  internal calcium in external Tyrode's solution without calcium: no increase in internal calcium
[2]; hNT cells, [βAP25-35] 10 μM
  % increase in [Ca^2+]int: 170 ± 85%
[2]; hNT cells, [βAP25-35] 20 μM
  % increase in [Ca^2+]int: 286 ± 179%
[2]; hNT cells, [βAP25-35] 50 μM
  % increase in [Ca^2+]int: 343 ± 245%
[2]; hNT cells, [βAP25-35] 130 μM
  % increase in [Ca^2+]int: 623 ± 555%
[2]; hNT cells, [βAP25-35] 172 μM
  % increase in [Ca^2+]int: 367 ± 108%
[2]; hNT cells, [βAP25-35] 334 μM
  % increase in [Ca^2+]int: 508 ± 561%
[2]; hNT cells, [βAP25-35] 112-114 μM
  % increase in [Ca^2+]int: 366 ± 260%

## ^+NH3-TVIGTIGGG-CONH2 (H-[dT][dV][dI]G[dT][dI]GGG-NH2; SMILES CC[C@@H](C)[C@@H](NC(=O)[C@H](NC(=O)[C@H](N)[C@H](C)O)C(C)C)C(=O)NCC(=O)N[C@@H](C(=O)N[C@@H](C(=O)NCC(=O)NCC(=O)NCC(N)=O)[C@H](C)CC)[C@H](C)O) [DP3]
[2]; hNT cells
  effect of decoy peptide by itself on cytosolic calcium concentrations: raise cytosolic calcium concentrations somewhat
[2]; hNT cells, unfiltered DP3 at 20 μM
  effect of unfiltered decoy peptide alone on [Ca^2+]int: an increase in [Ca^2+]int
[1]; DP3 in Tyrode's/2 mM Ca for 1 hour, then βAP25-35 added, both 20 mM [sic]
  effect on calcium influx when decoy peptide added prior to βAP25-35 aggregation: reduced the calcium influx induced by βAP25-35; also recorded: can reduce the βAP25-35-induced Ca^2+ influx
[1]
  effect on increase in internal calcium concentration due to βAP25-35: reduced or abolished the increase in the internal calcium concentration
[1]; unfiltered DP3 mixed with βAP25-35 at molar ratios of 1:2 or greater
  effect on ability of βAP25-35 to induce influx of calcium: marked decrease in the ability of βAP25-35 to induce influx of calcium
[1]; βAP25-35 aggregated 2 hours before DP3 addition, both 20 mM [sic]
  effect on calcium influx when decoy peptide added after βAP25-35 aggregation: did not reduce the induction of calcium influx

## ^+NH3.A.G.V.I.S.I.G.G.G (AGVISIGGG; not fully specified; printed as ^+NH3.A.G.V.I.S.I.G.G.G) [DP7]
[2]; hNT cells
  effect of decoy peptide by itself on cytosolic calcium concentrations: raise cytosolic calcium concentrations somewhat
[1]
  effect on increase in internal calcium concentration due to βAP25-35: reduced or abolished the increase in the internal calcium concentration

## ^+NH3.P.V.P.R^+.P.I.P.A.P.COO^− (H-[dP][dV][dP][dR][dP][dI][dP][dA][dP]-OH; also: modified) [DP17]
[4]
  effect on βAP1-42 calcium influx: did not reduce the effect of βAP1-42 on the calcium influx

## ^+NH3.T.G.I.I.A.S.G.G.G. (H-[dT]G[dI][dI][dA][dS]GGG) [DP4]
[2]; hNT cells
  effect of decoy peptide by itself on cytosolic calcium concentrations: no effect on cytosolic calcium concentrations
[1]
  effect on increase in internal calcium concentration due to βAP25-35: reduced or abolished the increase in the internal calcium concentration

## ^+NH3.T.T.I.V.S.T.G.G.G (H-[dT][dT][dI][dV][dS][dT]GGG) [DP6]
[2]; hNT cells
  effect of decoy peptide by itself on cytosolic calcium concentrations: raise cytosolic calcium concentrations somewhat
[1]
  effect on increase in internal calcium concentration due to βAP25-35: reduced or abolished the increase in the internal calcium concentration

## βAP1-42: β-amyloid peptide, SEQ ID NO:20, purchased from Quality Controlled Biochemicals
[3]; [Ca^2+] 0 mM, Na^+
  % ΔF: 51.1%
[3]; [Ca^2+] 0.4 mM, Na^+
  % ΔF: 8.3%
  Δ EM: +31.6 mV
[3]; [Ca^2+] 2 mM, ext. cation NMDG^+
  % ΔF: 44.1%
[3]; [Ca^2+] 2 mM, ext. cation Na^+, no addition
  % ΔF: 15.7% and 14.8%
[3]; [Ca^2+] 2 mM, ext. cation TEA^+
  % ΔF: 44.8%
[3]; [Ca^2+] 10 mM, Na^+
  % ΔF: 15.3%
  Δ EM: +58.3 mV
[3]; cultured hNT neuronal cells, Tyrode's/2Ca
  membrane depolarization caused by pre-aggregated Aβ1-42: large membrane depolarization
[3]; external Na^+ replaced with equal concentration of TEA^+ or NMDG^+
  membrane depolarization with external Na^+ replaced: large membrane depolarization
[3]; [5]
  membrane depolarization without external calcium: greatly increased membrane depolarization
[2]; Aβ1-42 sample not incubated (protofibrils)
  calcium influx by Aβ1-42 not incubated at 37° C.: did not produce the characteristic calcium influx
[2]
  [Ca^2+]int after exposure to unfiltered peptide: approximately 94 nM
[2]; hNT cells, aggregated Aβ1-42
  cytosolic calcium level after spontaneous desensitization: ~200 % of control
[2]; hNT cells, aggregated Aβ1-42, other experiments with longer time
  new plateau calcium level relative to control values: about twofold
[2]; [5]
  rise in cytosolic calcium without external calcium: almost no rise in cytosolic calcium
[2]; hNT cells, fura-2, Tyrode's/2Ca
  cytosolic calcium upon addition of aggregated Aβ1-42: large increase in cytosolic calcium
[2]; hNT cells, increasing βAP1-42 concentration
  concentration dependence of calcium influx: strong concentration dependence
